In this assay the target is T1, APC (Homo sapiens, UniProt P04070).
T1 construct: begins at amino acid residue position 158 and ends at 419; The light chain is 155 amino acid residues in length; tissue Factor IX concentrate from Immuno AG, Vienna; thrombin from Enzyme Research Laboratories
Put plainly: APC anticoagulant activity, APTT and Xa-1-stage coagulation assays (mean or both). To be noted: for IC50: final peptide concentration at which 50% inhibition of APC activity was observed; for inhibition at 500 µM: 500 μM peptide, mean of APTT and Xa-1-stage assays, 0 = no observable effect ± 10%. The format is biochemical. The gist of the method: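 Peptides at 500 μM final pre-incubated 7 min at 37° C with 10 nM APC in TBS-BSA pH 7.4, then 200 s with normal plasma or protein S-depleted plasma plus APTT reagent. Clotting started with 30 mM CaCl2; clot time measured in duplicate, inhibition of APC anticoagulant activity at 500 μM. Xa-1-stage coagulation assays also run.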

[1] abbreviates: final peptide concentration at which 90% inhibition of APC activity was observed, read-out: IC90.

Where two headings read alike, the source gives them in different places. No end group written: not given here.

T1 sequence (P04070 212-461): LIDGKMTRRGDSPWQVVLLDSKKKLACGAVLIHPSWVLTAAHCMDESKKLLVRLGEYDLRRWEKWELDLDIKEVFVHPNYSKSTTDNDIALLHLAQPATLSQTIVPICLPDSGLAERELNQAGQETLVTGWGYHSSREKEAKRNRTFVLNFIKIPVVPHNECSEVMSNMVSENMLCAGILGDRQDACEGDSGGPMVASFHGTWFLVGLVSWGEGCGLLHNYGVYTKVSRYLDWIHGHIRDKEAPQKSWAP
T1 sequence (P04070 43-197): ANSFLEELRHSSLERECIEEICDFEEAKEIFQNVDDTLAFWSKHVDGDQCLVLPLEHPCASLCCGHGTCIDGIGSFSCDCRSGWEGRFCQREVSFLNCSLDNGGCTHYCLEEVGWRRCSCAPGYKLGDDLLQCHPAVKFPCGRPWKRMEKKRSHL

“KRNRTFVLNFIKIPV-NH2 [peptide-(311-325), KRNRTFVLNFIKIPV]”: the IC90 was found to be 50 µM and the IC50 was 20 µM.

In turn, “SGLLHNYGVYTKVSR-NH2 [peptide-(384-398), -SGLLHNYGVYTKVSR]” came in with an inhibition at 500 µM of 60%. Further, the IC90 under setting [1] is above 500 µM.

“YGVYTKVSRYLDWIH-NH2 [peptide-(390-404), YGVYTKVSRYLDWIH]”: testing at 500 µM gave an inhibition of 100% and the IC50 was determined as 5 µM. Under setting [1], the IC90 was determined as 40 µM.

In general, IC90 refers to the point of the concentration-response curve where the effect stands at 90%. By IC50 is commonly meant the point on the concentration scale where inhibition reaches its midpoint. A lower IC50 goes with higher potency. What is called inhibition is how much of the control response was suppressed. A high value points to a response far below the control.

The values above are taken from patent US5279956A, “Activated protein C polypeptides and anti-peptide antibodies, diagnostic methods and systems for inhibiting activated protein C” (The Scripps Research Institute, priority 1991, dated 1994).
